ChEMBL document CHEMBL1201862, “PubChem BioAssay data set” (2004)
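Where inhibition never reached the appropriate level, the endpoint shown equals the highest concentration tested. Otherwise, values were interpolated linearly from a five-concentration, 48-hour dose response in 96-well plates. The concentration for 50% growth inhibition is given as GI50.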 Activity calls are given as the source filed them. Rule as the data show it: active = GI50 up to about 1.1 µM and inactive = higher.

Experiments:
Experiment in all cases: growth of human tumour cells (NCI), 48 h
CAKI-1 = system: CAKI-1
COLO 205 = system: COLO 205
HCC 2998 = system: HCC 2998
HCT-15 = system: HCT-15
HL-60 = system: HL-60
K562 = system: K562
KM12 = system: KM12
M14 = system: M14
MCF7 = system: MCF7
MDA-MB-435 = system: MDA-MB-435
NCI-H226 = system: NCI-H226
PC-3 = system: PC-3
RPMI-8226 = system: RPMI-8226
SF-268 = system: SF-268
SK-MEL-2 = system: SK-MEL-2
SW-620 = system: SW-620
UACC-62 = system: UACC-62
OVCAR-3 = system: OVCAR-3
SN12C = system: SN12C
DU-145 = system: DU-145

SMILES | GI50 (CAKI-1) | GI50 (COLO 205) | GI50 (HCC 2998) | GI50 (HCT-15) | GI50 (HL-60) | GI50 (K562) | GI50 (KM12) | GI50 (M14) | GI50 (MCF7) | GI50 (MDA-MB-435) | GI50 (NCI-H226) | GI50 (PC-3) | GI50 (RPMI-8226) | GI50 (SF-268) | GI50 (SK-MEL-2) | GI50 (SW-620) | GI50 (UACC-62) | GI50 (OVCAR-3) | GI50 (SN12C) | GI50 (DU-145)
O=C(/C=C/c1cc(F)ccc1F)OCCc1ccccc1 | > 100 µM (inactive) | > 100 µM (inactive) | > 100 µM (inactive) | 35.6 µM | 16.4 µM (inactive) | 52.1 µM (inactive) | 96.2 µM (inactive) | > 100 µM (inactive) | 42.2 µM (inactive) | > 100 µM (inactive) | > 100 µM (inactive) | 49.4 µM (inactive) | 47.3 µM (inactive) | > 100 µM (inactive) | > 100 µM (inactive) | > 100 µM (inactive) | 86.5 µM (inactive) | – | – | –
Cc1cc2c(nn1)CCc1c-2no[n+]1[O-] | > 100 µM (inactive) | > 100 µM (inactive) | > 100 µM (inactive) | > 100 µM | – | > 100 µM (inactive) | > 100 µM (inactive) | > 100 µM (inactive) | > 100 µM (inactive) | > 100 µM (inactive) | > 100 µM (inactive) | > 100 µM (inactive) | > 100 µM (inactive) | > 100 µM (inactive) | 50.1 µM (inactive) | > 100 µM (inactive) | > 100 µM (inactive) | > 100 µM (inactive) | > 100 µM (inactive) | –
O=C(Cc1ccccc1)N/N=C1\C(=O)Nc2ccccc21 | – | > 100 µM (inactive) | > 100 µM (inactive) | 62.8 µM | – | > 100 µM (inactive) | > 100 µM (inactive) | > 100 µM (inactive) | 49.8 µM (inactive) | > 100 µM (inactive) | 71.9 µM (inactive) | 70.5 µM (inactive) | – | 31.6 µM (inactive) | > 100 µM (inactive) | – | > 100 µM (inactive) | > 100 µM (inactive) | 48.5 µM (inactive) | > 100 µM (inactive)
CCC/C=C1\CCC(CN(C)C)C1=O (centres undefined) | 2.13 µM (inactive) | 3.1 µM (inactive) | 15.8 µM (inactive) | 2.51 µM | 9.25 µM (inactive) | 2.15 µM (inactive) | 4.67 µM (inactive) | 6.52 µM (inactive) | – | – | 19 µM (inactive) | – | 0.333 µM (active) | 14.5 µM (inactive) | 15.9 µM (inactive) | 4.6 µM (inactive) | 14.6 µM (inactive) | 5.47 µM (inactive) | 16.9 µM (inactive) | –
CC(=O)NC(CCCCN(Cc1ccccc1)C(=O)NCCCl)C(=O)NCc1ccccc1 (centres undefined) | > 100 µM (inactive) | > 100 µM (inactive) | > 100 µM (inactive) | > 100 µM | > 100 µM (inactive) | > 100 µM (inactive) | > 100 µM (inactive) | > 100 µM (inactive) | – | – | > 100 µM (inactive) | – | > 100 µM (inactive) | > 100 µM (inactive) | > 100 µM (inactive) | > 100 µM (inactive) | > 100 µM (inactive) | > 100 µM (inactive) | > 100 µM (inactive) | –
O=C(CN1C(=O)CC(c2ccccc2)(c2ccccc2)C1=O)N1CCN(CCO)CC1 | > 100 µM (inactive) | > 100 µM (inactive) | > 100 µM (inactive) | > 100 µM | – | > 100 µM (inactive) | > 100 µM (inactive) | > 100 µM (inactive) | > 100 µM (inactive) | > 100 µM (inactive) | – | > 100 µM (inactive) | > 100 µM (inactive) | > 100 µM (inactive) | > 100 µM (inactive) | > 100 µM (inactive) | > 100 µM (inactive) | > 100 µM (inactive) | > 100 µM (inactive) | > 100 µM (inactive)
Nc1nc(N)nc(-c2cnc3ccccc3c2)n1 | > 100 µM (inactive) | > 100 µM (inactive) | > 100 µM (inactive) | > 100 µM | – | > 100 µM (inactive) | > 100 µM (inactive) | > 100 µM (inactive) | > 100 µM (inactive) | > 100 µM (inactive) | > 100 µM (inactive) | > 100 µM (inactive) | – | > 100 µM (inactive) | > 100 µM (inactive) | > 100 µM (inactive) | 72.1 µM (inactive) | > 100 µM (inactive) | > 100 µM (inactive) | > 100 µM (inactive)
C[C@H]1CC[C@@]2(NC1)O[C@H]1C[C@H]3[C@@H]4CC[C@H]5C[C@@H](O)CC[C@]5(C)[C@H]4CC[C@]3(C)[C@H]1[C@@H]2C | > 100 µM (inactive) | > 100 µM (inactive) | > 100 µM (inactive) | 42.7 µM | 51.1 µM (inactive) | > 100 µM (inactive) | 71.8 µM (inactive) | > 100 µM (inactive) | > 100 µM (inactive) | – | > 100 µM (inactive) | > 100 µM (inactive) | > 100 µM (inactive) | 74.8 µM (inactive) | > 100 µM (inactive) | – | > 100 µM (inactive) | 54.2 µM (inactive) | > 100 µM (inactive) | > 100 µM (inactive)
COc1cc(CNc2nc3cc(C(F)(F)F)ccc3nc2-c2ccccc2)cc(OC)c1OC | 39.4 µM (inactive) | 17.1 µM (inactive) | 19.8 µM (inactive) | 17.3 µM | 18.5 µM (inactive) | 22.5 µM (inactive) | 14.8 µM (inactive) | 30.5 µM (inactive) | 1.52 µM (inactive) | 28.5 µM (inactive) | 32.3 µM (inactive) | – | 25.6 µM (inactive) | 40.6 µM (inactive) | – | 39.2 µM (inactive) | 8.53 µM (inactive) | 24.6 µM (inactive) | 24.3 µM (inactive) | 89.7 µM (inactive)
CCOC(=O)C1=C(Nc2ccccc2)SCC1=O | > 100 µM (inactive) | > 100 µM (inactive) | > 100 µM (inactive) | > 100 µM | > 100 µM (inactive) | > 100 µM (inactive) | > 100 µM (inactive) | > 100 µM (inactive) | – | – | > 100 µM (inactive) | – | > 100 µM (inactive) | > 100 µM (inactive) | > 100 µM (inactive) | > 100 µM (inactive) | > 100 µM (inactive) | > 100 µM (inactive) | > 100 µM (inactive) | –
O=C(Nc1cccc(Cl)c1)C(=O)C(C(=O)c1ccc2ccccc2c1)C1OC(=O)c2ccccc21 (centres undefined) | 18.5 µM (inactive) | 17.1 µM (inactive) | 10.2 µM (inactive) | > 10 µM | 9.16 µM (inactive) | 16.1 µM (inactive) | 22.6 µM (inactive) | 16 µM (inactive) | – | – | 2.86 µM (inactive) | – | 7.67 µM (inactive) | 7.29 µM (inactive) | 14.6 µM (inactive) | 18.9 µM (inactive) | 15.3 µM (inactive) | 14.7 µM (inactive) | 18.6 µM (inactive) | –
Oc1cc(-c2ccc3ccccc3c2)nc2ncccc12 | – | 4.05 µM (inactive) | 9.4 µM (inactive) | 4.18 µM | – | 2.7 µM (inactive) | 4.88 µM (inactive) | 7.13 µM (inactive) | 5.77 µM (inactive) | – | 23 µM (inactive) | – | 3.15 µM (inactive) | 28.1 µM (inactive) | 4.95 µM (inactive) | 5.18 µM (inactive) | 5.41 µM (inactive) | – | 23.6 µM (inactive) | 19.9 µM (inactive)
COc1cccc2c1CCc1c(-c3ccc(F)cc3)cc(-c3ccc4ccccc4n3)nc1-2 | > 100 µM (inactive) | > 100 µM (inactive) | – | > 100 µM | – | > 100 µM (inactive) | > 100 µM (inactive) | > 100 µM (inactive) | > 100 µM (inactive) | > 100 µM (inactive) | > 100 µM (inactive) | > 100 µM (inactive) | > 100 µM (inactive) | > 100 µM (inactive) | > 100 µM (inactive) | > 100 µM (inactive) | > 100 µM (inactive) | > 100 µM (inactive) | – | –
c1ccc(C2=NOC3C4CCC(C4)C23)cc1 (centres undefined) | < 0.01 µM (active) | > 100 µM (inactive) | > 100 µM (inactive) | > 100 µM | > 100 µM (inactive) | > 100 µM (inactive) | > 100 µM (inactive) | > 100 µM (inactive) | – | – | > 100 µM (inactive) | – | > 100 µM (inactive) | > 100 µM (inactive) | > 100 µM (inactive) | > 100 µM (inactive) | > 100 µM (inactive) | > 100 µM (inactive) | > 100 µM (inactive) | –
C/C=C1/C(=O)O[C@]23C=C[C@@H]4C(C(=O)OC)=CO[C@H](O[C@@H]12)[C@@H]43 [PLUMERICIN] | 1.14 µM (inactive) | 1 µM (active) | 2.68 µM (inactive) | 0.671 µM | 0.24 µM (active) | 0.652 µM (active) | 2.28 µM (inactive) | – | 0.832 µM (active) | – | 2.44 µM (inactive) | – | 0.423 µM (active) | 1.28 µM (inactive) | 1.44 µM (inactive) | 0.432 µM (active) | 0.815 µM (active) | 0.861 µM (active) | 1.98 µM (inactive) | –
Cc1cccc(/C=C2\CCCCCC2=O)c1 | > 100 µM (inactive) | > 100 µM (inactive) | > 100 µM (inactive) | > 100 µM | < 0.01 µM (active) | > 100 µM (inactive) | > 100 µM (inactive) | > 100 µM (inactive) | – | > 100 µM (inactive) | > 100 µM (inactive) | > 100 µM (inactive) | 60.5 µM (inactive) | > 100 µM (inactive) | > 100 µM (inactive) | > 100 µM (inactive) | > 100 µM (inactive) | > 100 µM (inactive) | > 100 µM (inactive) | > 100 µM (inactive)
CSc1nc2c(ncn2C2OCC(O)C(O)C2O)c(=O)[nH]1 (centres undefined) | – | > 100 µM (inactive) | > 100 µM (inactive) | > 100 µM | > 100 µM (inactive) | > 100 µM (inactive) | > 100 µM (inactive) | – | > 100 µM (inactive) | – | > 100 µM (inactive) | – | > 100 µM (inactive) | > 100 µM (inactive) | > 100 µM (inactive) | > 100 µM (inactive) | > 100 µM (inactive) | > 100 µM (inactive) | > 100 µM (inactive) | –
